Counter-ions that a name gives are not always drawn.
Biological target: hERG (Homo sapiens, UniProt Q12809)
Experiment: cell-based
Settings: (-LOG10(IC50), µM)

Chain of hERG (Q12809 whole entry): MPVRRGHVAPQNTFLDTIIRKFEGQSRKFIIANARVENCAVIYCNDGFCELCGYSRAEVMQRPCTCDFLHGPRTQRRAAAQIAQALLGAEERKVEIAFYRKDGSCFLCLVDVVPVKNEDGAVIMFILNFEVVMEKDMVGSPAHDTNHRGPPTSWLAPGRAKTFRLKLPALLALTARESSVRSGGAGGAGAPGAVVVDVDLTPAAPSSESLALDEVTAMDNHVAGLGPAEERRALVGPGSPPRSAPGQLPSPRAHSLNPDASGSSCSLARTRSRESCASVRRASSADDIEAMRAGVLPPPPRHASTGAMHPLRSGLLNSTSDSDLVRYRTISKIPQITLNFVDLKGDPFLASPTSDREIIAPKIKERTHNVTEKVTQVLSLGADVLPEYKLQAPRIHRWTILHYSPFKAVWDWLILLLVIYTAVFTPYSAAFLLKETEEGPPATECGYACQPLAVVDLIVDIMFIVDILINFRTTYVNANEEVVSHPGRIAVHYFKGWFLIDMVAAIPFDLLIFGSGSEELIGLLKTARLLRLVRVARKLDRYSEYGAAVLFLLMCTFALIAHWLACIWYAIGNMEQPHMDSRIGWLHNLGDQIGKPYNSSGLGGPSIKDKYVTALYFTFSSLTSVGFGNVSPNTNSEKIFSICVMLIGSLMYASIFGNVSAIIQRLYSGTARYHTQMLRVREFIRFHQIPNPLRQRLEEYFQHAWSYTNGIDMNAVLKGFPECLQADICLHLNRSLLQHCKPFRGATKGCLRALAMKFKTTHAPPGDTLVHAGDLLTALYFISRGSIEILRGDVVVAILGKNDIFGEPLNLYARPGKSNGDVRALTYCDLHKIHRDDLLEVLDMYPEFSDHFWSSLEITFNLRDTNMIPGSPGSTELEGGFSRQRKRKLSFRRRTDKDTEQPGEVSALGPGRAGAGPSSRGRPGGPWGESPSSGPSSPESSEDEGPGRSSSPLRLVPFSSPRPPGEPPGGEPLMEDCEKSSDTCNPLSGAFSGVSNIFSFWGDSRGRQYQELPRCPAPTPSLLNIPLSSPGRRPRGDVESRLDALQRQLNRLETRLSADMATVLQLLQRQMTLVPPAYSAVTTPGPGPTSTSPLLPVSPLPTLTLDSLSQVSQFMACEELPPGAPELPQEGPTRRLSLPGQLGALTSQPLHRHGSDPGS

Structure (SMILES)	IC50 [µM]
CC(=O)c1cc2c(cc1C)C(C)(C)C(C)CC2(C)C (centres unmarked) [Tonalide]	20.3
CCOCCn1c(N2CCCN(C)CC2)nc2ccccc21 [Emedastine difumarate]	6.24
Clc1ccc(Cn2c(CN3CCCC3)nc3ccccc32)cc1 [Clemizole hydrochloride]	1.34
O=C1C2(Cl)C3(Cl)C4(Cl)C(Cl)(Cl)C5(Cl)C3(Cl)C1(Cl)C5(Cl)C24Cl (centres unmarked) [Kepone]	12.7
c1ccc(C[P+](c2ccccc2)(c2ccccc2)c2ccccc2)cc1 [Benzyltriphenylphosphonium chloride]	2.27
O=C(Oc1ccccc1)c1ccccc1C(=O)Oc1ccccc1 [Diphenyl phthalate]	15.5
COc1ccc(C(=O)c2ccc(C)cc2)c(O)c1 [Mexenone]	45.9
CSCCCN=C=S [3-(Methylthio)propyl isothiocyanate]	36.7
CCCCCCCCCCCCc1ccccc1S(=O)(=O)O [Sodium dodecylbenzenesulfonate]	24.5
CCCCCCCC[S+]([O-])C(C)Cc1ccc2c(c1)OCO2 (centres unmarked) [Piperonyl sulfoxide]	38.2
O=P(Oc1ccccc1)(Oc1ccccc1)Oc1ccccc1 [triphenyl phosphate]	32.1
O=C1CCCC=CCCCCCCCCCC1 [5-Cyclohexadecen-1-one]	29.2
CCCCCCCCCCn1cc[n+](C)c1 [1-Decyl-3-methylimidazolium chloride]	16.7
N#CC(C#N)=NNc1cccc(Cl)c1 [Carbonyl cyanide chlorophenylhydrazone]	36
CCc1ccc2c(c1)C(=O)c1ccccc1C2=O [2-Ethylanthraquinone]	24.5
O=C1[C@H]2CCCC[C@H]2C(=O)N1CCCCN1CCN(c2nsc3ccccc23)CC1 [Perospirone hydrochloride]	8.49
COc1ccc(CCN(C)CCCN2CCc3cc(OC)c(OC)cc3CC2=O)cc1OC [Zatebradine hydrochloride]	10.1
O=C(CCC1CCN(Cc2ccccc2)CC1)c1ccc2c(c1)NCCCC2 [Zanapezil fumerate]	4.59
O=C1c2c(O)ccc(Nc3ccc(CCO)cc3)c2C(=O)c2c([N+](=O)[O-])ccc(O)c21 [C.I. Disperse Blue 27]	43.6
CCCCCOC(=O)COc1cc(N2C(=O)C3=C(CCCC3)C2=O)c(F)cc1Cl [Flumiclorac-pentyl]	16.4
CCOC(=O)C1=C[C@]2(CC)CCCN3CCc4c(n1c1ccccc41)[C@@H]32 [Vinpocetine]	0.169

Structure (SMILES)	IC50 [µM]
CCOC(=O)C(O)(c1ccc(Cl)cc1)c1ccc(Cl)cc1 [Chlorobenzilate]	33.7
Cc1nc(-c2ccc3c(c2)CCN(CCC2CCC(NC(=O)/C=C/c4ccc(F)cc4)CC2)CC3)no1 (centres unmarked) [SB413217A]	1.02
CC(C)CC(C)N(c1ccccc1)c1ccc(N)cc1 (centres unmarked) [N-(4-Methylpentan-2-yl)-N-phenylbenzene-1,4-diamine]	27.5
O=C(NC(=O)c1c(F)cccc1F)Nc1ccc(Oc2ccc(C(F)(F)F)cc2Cl)cc1F [Flufenoxuron]	37.4
CCCCCCOC(=O)c1ccccc1O [Hexyl salicylate]	18.8
CC/C=C\CCOC(=O)c1ccccc1O [(3Z)-Hex-3-en-1-yl salicylate]	34.7
c1ccc(C(O[C@H]2CCCN(CCc3ccc4c(c3)OCO4)C2)c2ccccc2)cc1 [Zamifenacin fumarate]	0.535
CN1CCN(CCCN2c3ccccc3Sc3ccc(S(=O)(=O)N(C)C)cc32)CC1 [Thioproperazine dimethanesulfonate]	4.96
NC(=O)C1(N2CCCCC2)CCN(CCCC(=O)c2ccc(F)cc2)CC1 [Pipamperone dihydrochloride]	20.1
CC(CN1c2ccccc2Sc2ccccc21)N(C)C (centres unmarked) [Promethazine hydrochloride]	23
O=C(C=Cc1ccccc1)OCCCc1ccccc1 [3-Phenylpropyl cinnamate]	19.5
CCOP(=S)(OCC)Oc1ccc2c(C)c(Cl)c(=O)oc2c1 [Coumaphos]	40.4
CN1C(=O)[C@@H](NC(=O)c2cc3ccccc3[nH]2)N=C(c2ccccc2)c2ccccc21 [Devazepide]	9.52
C=CC(=O)OCC1CC2CC1C1CCC(COC(=O)C=C)C21 (centres unmarked) [Tricyclodecanedimethanol diacrylate]	36
CN(C)C(=O)C1(N2CCCCC2)CCN(CC[C@@]2(c3ccc(Cl)c(Cl)c3)CN(C(=O)c3ccccc3)CCO2)CC1 [SSR 241586 HCl]	9.49
CCCCCCCCCCCC[N+](C)(C)C [Dodecyltrimethylammonium chloride]	18
CCOC(=O)C(C)Oc1ccc(Oc2nc3ccc(Cl)cc3o2)cc1 (centres unmarked) [Fenoxaprop-ethyl]	30.9
Nc1ccc(C(=O)OCCCOC(=O)c2ccc(N)cc2)cc1 [1,3-Propanediol, bis(4-aminobenzoate)]	12.3
O=S1OC[C@@H]2[C@H](CO1)[C@]1(Cl)C(Cl)=C(Cl)[C@@]2(Cl)C1(Cl)Cl (some centres unmarked) [Endosulfan I]	43.6
CC(COc1ccc(Oc2ccccc2)cc1)Oc1ccccn1 (centres unmarked) [Pyriproxyfen]	21
CCOc1ccccc1OCCN[C@H](C)Cc1ccc(OC)c(S(N)(=O)=O)c1 [Tamsulosin hydrochloride]	19.7

Structure (SMILES)	IC50 [µM]
CCC(C)c1cc([N+](=O)[O-])cc([N+](=O)[O-])c1OC(=O)C=C(C)C (centres unmarked) [Binapacryl]	30.9
CCCCCNC(=N)N/N=C/c1c[nH]c2ccc(OC)cc12 [Tegaserod]	9.16
CCCCCCCC[n+]1ccn(C)c1 [1-Methyl-3-octylimidazolium chloride]	19.4
C=CCOC(Cn1ccnc1)c1ccc(Cl)cc1Cl (centres unmarked) [Imazalil]	29.8
Cc1nc2ccccn2c(=O)c1CCN1CCC(C(=O)c2ccc(F)cc2)CC1 [Pirenperone]	6.74
C#CCOC(=O)[C@@H](C)Oc1ccc(Oc2ncc(Cl)cc2F)cc1 [Clodinafop-propargyl]	41
Cc1cc(-c2ccc(N=Nc3cc(S(=O)(=O)O)c4ccccc4c3N)c(C)c2)ccc1N=Nc1cc(S(=O)(=O)O)c2ccccc2c1N [C.I. Direct Red 2]	21.2
CCOC(=O)C1=NOC(c2ccccc2)(c2ccccc2)C1 [Ethyl 5,5-diphenyl-2-isoxazoline-3-carboxylate]	36.7
CC(C)Nc1cccnc1N1CCN(C(=O)c2cc3cc(NS(C)(=O)=O)ccc3[nH]2)CC1 [Delavirdine]	11.1
O=C1CN=C(c2ccccc2)c2cc(Cl)ccc2N1CC1CC1 [Prazepam]	23
Cc1cc(C(C)(C)C)c(O)c(C(C)(C)C)c1 [Butylated hydroxytoluene]	20.7
CC(CCc1ccc(O)cc1)NCCc1ccc(O)c(O)c1 (racemic) [DL-Dobutamine]	16.9
Clc1ccccc1-c1ccccc1Cl [2,2'-Dichlorobiphenyl]	17.6
CN1Cc2c(N)cccc2C(c2ccccc2)C1 (centres unmarked) [Nomifensine]	38.9
CCC1=C[C@@H]2CN(C1)Cc1c([nH]c3ccccc13)[C@@](C(=O)OC)(c1cc3c(cc1OC)N(C)[C@H]1[C@@](O)(C(=O)OC)[C@H](OC(C)=O)[C@]4(CC)C=CCN5CC[C@]31[C@@H]54)C2 [Vinorelbine tartrate]	6.49
O=C(c1ccccc1)c1cc(Cl)ccc1O [(5-Chloro-2-hydroxyphenyl)phenylmethanone]	46.5
O=C(CN1CCN(Cc2ccc3c(c2)OCO3)CC1)N1c2ccccc2Sc2ccccc21 [Fenoverine]	3.51
CCOC(=O)C1=NN(c2ccc(Cl)cc2Cl)C(C)(C(=O)OCC)C1 (centres unmarked) [Mefenpyr-diethyl]	46.2
CCCCCCCCCCCCn1cc[n+](C)c1 [1-Dodecyl-3-methylimidazolium hexafluorophosphate]	4.2
CN1CCN(C2Cc3ccccc3Sc3ccc(Cl)cc32)CC1 (centres unmarked) [Octoclothepine maleate]	0.849
ClC1=C(Cl)C2(Cl)C3C(Cl)C(Cl)CC3C1(Cl)C2(Cl)Cl (centres unmarked) [Chlordane]	30.9

Structure (SMILES)	IC50 [µM]
O=C(Nc1ccccc1)OCC(CN1CCCCC1)OC(=O)Nc1ccccc1 (centres unmarked) [Diperodon hydrochloride]	6.01
CC(C)(C)CC(C)(C)c1ccc(O)cc1 [4-(1,1,3,3-Tetramethylbutyl)phenol]	21.3
CC(C)(C)C(O)(CCc1ccc(Cl)cc1)Cn1cncn1 (centres unmarked) [Tebuconazole]	21.9
CCOC(=O)Nc1ccc(NCc2ccc(F)cc2)nc1N [Flupirtine maleate]	19
CC(C)=CCN1CC[C@@]2(C)c3cc(O)ccc3C[C@@H]1[C@@H]2C [(-)-Pentazocine succinate]	22.8
CCc1cc(Cc2cc(CC)cc(C(C)(C)C)c2O)c(O)c(C(C)(C)C)c1 [2,2'-Methylenebis(ethyl-6-tert-butylphenol)]	17.4
CCc1cc(C(C)(C)C)c(O)c(C(C)(C)C)c1 [2,6-Di-tert-butyl-4-ethylphenol]	19.5
c1cc(CN2CCCCC2)cc(OCCCNc2nc3ccccc3s2)c1 [Zolantidine dimaleate]	9.16
CCCCCCCC[n+]1ccn(C)c1 [1-Methyl-3-octylimidazolium trifluoromethanesulfonate]	21.2
CCCCCCCC[n+]1ccn(C)c1 [1-Methyl-3-octylimidazolium hexafluorophosphate]	17.6
O=C(Oc1ccccc1)c1ccc2ccccc2c1O [Phenyl 1-hydroxy-2-naphthoate]	49
CCN(CC)CCSC(=O)C(c1ccccc1)c1ccccc1 [Thiphenamil]	3.01
COc1ccc2[nH]cc(CCN(C(C)C)C(C)C)c2c1 [5-Methoxy-N,N-diisopropyltryptamine hydrochloride]	25.2
O=[N+]([O-])c1ccc(Nc2ccccc2)cc1 [4-Nitro-N-phenylaniline]	51.3
OC(c1ccc(Cl)cc1)(c1cncnc1)c1ccccc1Cl (centres unmarked) [Fenarimol]	47.9
CCCCC(CC)COCCCN (centres unmarked) [3-((2-Ethylhexyl)oxy)propylamine]	35.6
OCCN1CCN(CCCN2c3ccccc3Sc3ccc(C(F)(F)F)cc32)CC1 [Fluphenazine]	2.79
CCN(CC)CCNC(C(=O)OCCC(C)C)c1ccccc1 (centres unmarked) [Camylofin]	6.74
CCCCC(CC)COC(=O)c1ccc(O)cc1 (centres unmarked) [2-Ethylhexyl p-hydroxybenzoate]	24.5
CCCN(CCOc1c(Cl)cc(Cl)cc1Cl)C(=O)n1ccnc1 [Prochloraz]	20.3
